Measured values published in US9060955B2, “Transdermal therapeutic system with crystallization-inhibiting protective film (release liner)” (Bayer Intellectual Property GmbH, priority 2010, dated 2015).

Assay: Solubility of GSD in the active-ingredient-containing matrix
Format: physicochemical

C#C[C@]1(O)C=C[C@H]2[C@@H]3CCC4=CC(=O)CC[C@@H]4[C@H]3CC[C@@]21CC [GSD, gestodene]
Solubility in the active-ingredient-containing matrix: ca. 2%
